≈ marks a conversion by molar mass, not a printed value. Read-outs that look alike come from different tables or passages of the source.
Assays:
[1] = system: Mycobacterium tuberculosis; conditions: Ashtekar et al. 1993; cited from earlier work
Helicobacter pylori = assay: In vitro inhibition of Helicobacter pylori (broth microdilution MIC); conditions: Helicobacter pylori
[2] = system: Mycobacterium tuberculosis H37Rv (sensitive strain); assay: MIC as determined by the BACTEC method, sensitive strain; assay type: cell-based; conditions: M. tuberculosis H37Rv (sensitive strain), read-out: MIC, column B, 3(S) compounds
Helicobacter felis = assay: In vivo activity against Helicobacter felis in mice (urease test of stomach biopsy); parameters: species or system in female CD-1 mice; conditions: 50 mg/kg three times daily oral gavage, CM-2, four days; vehicle and untreated 100
Protocol: Female CD-1 mice weighing 30 grams were infected by oral gavage with 10^8 -10^9 colony forming units of H. felis. This infection process was repeated two, and four days, thereafter. Colonization of the stomach was allowed to occur over a seven day period. Animals were segregated into groups of five, and were treated three times daily by oral gavage with 50 mg/kg of test drugs prepared in the CM-2 formulation vehicle (Example 52). Treatment continued for four days. One group of animals received an equal volume of formulation vehicle alone, to ensure that the vehicle had no effect on the Helicobacter infection. A separate untreated control group was also included.
All animals were then sacrificed, the stomachs were removed, opened, and the contents washed out. A five millimeter diameter biopsy was removed, and transferred to a urease test solution containing a pH-sensitive dye, which was then incubated at 37° C. incubator for 24 hours. A blue or purple coloration in this test solution signifies a positive reaction, indicating the continued presence of viable Helicobacter bacteria; a negative result is indicated by a yellow coloration. Viable Helicobacter bacteria produce a urease enzyme which converts urea, of which there is an abundant supply in the stomach (from saliva and gastric juices), into bicarbonate and ammonia, which are strong bases. This mechanism is considered to provide conditions more amenable to the survival of Helicobacter in the otherwise acidic conditions prevalent in the stomach.

[3] = system: Mycobacterium bovis (rBCG); assay type: in vivo; conditions: 10 days
[4] = system: Mycobacterium bovis BCG (recombinant strain); assay: microbe, parasite or virus in culture; assay type: cell-based; conditions: Mycobacterium tuberculosis variant bovis BCG, BCG, 144 h; 6 days 37° C.; read-out: MIC, column A, 3(S) compounds
[5] = system: Clostridium difficile ATCC 17857; assay: In vitro inhibition of Clostridium difficile (Oxyrase broth microdilution MIC); assay type: cell-based; conditions: Clostridioides difficile, ATCC17857; Clostridium difficile ATCC 17857, Oxyrase broth; read-out: MIC, column D, 3(S) compounds

| Compound | activity against Mycobacterium tuberculosis [1] | MIC (Helicobacter pylori; 72 h, read-out: MIC against Helicobacter pylori, strain 17 (Table 5A)) [µg/mL] | MIC (Helicobacter pylori; 72 h, read-out: MIC against Helicobacter pylori, strain 19 (Table 5A)) [µg/mL] | MIC (Helicobacter pylori; 72 h, read-out: MIC against Helicobacter pylori, strain 20 (Table 5A)) [µg/mL] | MIC (Helicobacter pylori; 72 h, read-out: MIC against Helicobacter pylori, strain 40 (Table 5A)) [µg/mL] | MIC (Helicobacter pylori; 72 h, read-out: MIC against Helicobacter pylori, strain 43 (Table 5A)) [µg/mL] | MIC (Helicobacter pylori; 72 h, read-out: MIC against Helicobacter pylori, strain 76 (Table 5A)) [µg/mL] | MIC (Helicobacter pylori; ATCC43504, 72 h, read-out: MIC against Helicobacter pylori, strain ATCC 43504 (Table 5A)) [µg/mL] | MIC [2] [µg/mL] | % Survival (Helicobacter felis) [%] | Average RLUs, M. bovis (rBCG) in spleens [3] | MIC [4] [µg/mL] | MIC [5] [µg/mL] |
| --- | --- | --- | --- | --- | --- | --- | --- | --- | --- | --- | --- | --- | --- |
| CCC1Cn2cc([N+](=O)[O-])nc2O1 (centres unmarked) [CGI 17341, 2-ethyl-5-nitro-2,3-dihydro[2,1-b]imidazo-oxazole] | exhibit activity against Mycobacterium tuberculosis |  |  |  |  |  |  |  |  |  |  |  |  |
| O=[N+]([O-])c1cn2c(n1)OC[C@@H](OCc1ccc(OCc3ccccc3)cc1)C2 [PA-647] |  | > 25 | 0.2 (≈ 0.524 µM) | 0.2 (≈ 0.524 µM) | 0.4 (≈ 1.05 µM) | 0.4 (≈ 1.05 µM) | 3.12 (≈ 8.18 µM) | > 25 | 0.03 (≈ 0.0787 µM) | 100 | 19,916 RLUs | 0.03 (≈ 0.0787 µM) | 12.5 (≈ 32.8 µM) |
| CC(C)(C)c1ccc(CO[C@@H]2COc3nc([N+](=O)[O-])cn3C2)cc1 [PA-653] |  |  |  |  |  |  |  |  | 0.03 (≈ 0.0905 µM) |  | 229,080 RLUs | 0.06 (≈ 0.181 µM) | 3.12 (≈ 9.42 µM) |

— US6087358A (priority 1997, dated 2000)
